Measurements: ChEMBL document CHEMBL1127206, “Preparation and in vitro biological evaluation of the enantiomers of the diydropyridine BMY 20014, a combination calcium and 1-adrenoreceptor antagonist” (Bioorg Med Chem Lett, 1993)

Legend:
[1] = biological target: T1, Adrenergic receptor alpha-1 (Rattus norvegicus, UniProt P15823+P23944+P43140); test: Alpha-1 adrenergic receptor binding affinity was evaluated by its ability to displace [3H]prazosin in rat brain synaptosomes; type: subcellular
T1 sequence (P15823 whole entry): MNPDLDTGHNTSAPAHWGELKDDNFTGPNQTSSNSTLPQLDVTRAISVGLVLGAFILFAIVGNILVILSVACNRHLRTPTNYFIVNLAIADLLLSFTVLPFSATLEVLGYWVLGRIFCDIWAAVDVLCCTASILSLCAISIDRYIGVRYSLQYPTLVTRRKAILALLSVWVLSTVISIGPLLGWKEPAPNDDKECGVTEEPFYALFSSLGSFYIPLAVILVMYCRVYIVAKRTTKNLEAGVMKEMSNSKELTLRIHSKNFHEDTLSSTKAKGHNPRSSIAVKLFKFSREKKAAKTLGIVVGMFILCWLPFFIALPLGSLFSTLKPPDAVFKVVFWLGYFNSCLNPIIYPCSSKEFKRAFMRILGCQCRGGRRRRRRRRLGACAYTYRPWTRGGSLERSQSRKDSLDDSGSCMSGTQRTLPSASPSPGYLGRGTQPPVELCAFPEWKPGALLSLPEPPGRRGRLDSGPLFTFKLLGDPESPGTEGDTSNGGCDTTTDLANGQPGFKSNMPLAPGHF
T1 sequence (P23944 whole entry): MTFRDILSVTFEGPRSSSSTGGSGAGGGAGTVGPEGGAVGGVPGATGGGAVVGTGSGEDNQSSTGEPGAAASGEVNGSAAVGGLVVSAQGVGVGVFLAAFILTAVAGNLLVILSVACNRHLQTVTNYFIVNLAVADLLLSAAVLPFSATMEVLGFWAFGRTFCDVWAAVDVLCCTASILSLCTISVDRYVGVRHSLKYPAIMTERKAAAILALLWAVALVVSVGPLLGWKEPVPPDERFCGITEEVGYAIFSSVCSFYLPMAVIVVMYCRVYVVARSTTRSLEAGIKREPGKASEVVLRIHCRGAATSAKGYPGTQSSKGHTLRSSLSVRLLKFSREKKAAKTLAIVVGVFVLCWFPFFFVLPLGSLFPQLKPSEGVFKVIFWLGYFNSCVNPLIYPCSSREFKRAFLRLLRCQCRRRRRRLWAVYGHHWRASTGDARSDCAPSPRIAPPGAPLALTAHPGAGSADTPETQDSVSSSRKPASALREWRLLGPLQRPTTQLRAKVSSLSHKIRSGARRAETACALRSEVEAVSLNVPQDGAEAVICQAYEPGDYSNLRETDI
T1 sequence (P43140 whole entry): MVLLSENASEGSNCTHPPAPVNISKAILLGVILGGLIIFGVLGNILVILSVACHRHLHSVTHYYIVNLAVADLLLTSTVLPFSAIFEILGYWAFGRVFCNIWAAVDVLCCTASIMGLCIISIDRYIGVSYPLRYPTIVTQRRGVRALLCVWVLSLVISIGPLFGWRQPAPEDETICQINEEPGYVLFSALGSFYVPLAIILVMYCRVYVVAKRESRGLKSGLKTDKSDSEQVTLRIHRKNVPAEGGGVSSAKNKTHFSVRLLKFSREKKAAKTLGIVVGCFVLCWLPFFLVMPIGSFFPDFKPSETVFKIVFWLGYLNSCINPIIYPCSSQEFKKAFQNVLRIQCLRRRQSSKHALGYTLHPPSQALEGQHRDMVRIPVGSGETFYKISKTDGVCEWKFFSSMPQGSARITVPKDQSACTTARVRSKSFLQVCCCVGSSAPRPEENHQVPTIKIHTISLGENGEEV

[2] = [Ca2+] channel binding affinity was evaluated by its ability to displace [3H]-PN-200-110 in rat brain synaptosomes; type: subcellular
Rattus norvegicus = organism: Rattus norvegicus; test: Inhibition constant by its ability to inhibit (act through Ca++ ion channel) contractions induced by K+ depolarization in rat dorsal aorta; type: functional
Oryctolagus cuniculus = organism: Oryctolagus cuniculus; test: Inhibition constant by its ability to inhibit contractions induced by phenylephrine in rabbit dorsal aorta; type: functional

Ki [1] | Ki [2] | Structure (SMILES) | Kb (Rattus norvegicus) | Kb (Oryctolagus cuniculus)
> 1000 nM | 7.8 nM | CO/C(O)=C1\C(C)=NC(C)=C(C(=O)n2ccnc2)[C@H]1c1cccc([N+](=O)[O-])c1 | 3.6 nM | –
4.6 nM | 16 nM | COC(=O)C1=C(C)NC(C)=C(C(=O)NCCCN2CCN(c3ccccc3OC)CC2)[C@H]1c1cccc([N+](=O)[O-])c1 | 2.9 nM | 8.3 nM
13 nM | 35 nM | CO/C(O)=C1\C(C)=NC(C)=C(C(=O)NCCCN2CCN(c3ccccc3OC)CC2)C1c1cccc([N+](=O)[O-])c1 (centres undefined) | 6.3 nM | –
36 nM | 338 nM | COC(=O)C1=C(C)NC(C)=C(C(=O)NCCCN2CCN(c3ccccc3OC)CC2)[C@@H]1c1cccc([N+](=O)[O-])c1 | 107 nM | 50 nM

More lines, now with the values behind:

Structure (SMILES) | Ki [1] | Ki [2] | Kb (Rattus norvegicus) | Kb (Oryctolagus cuniculus)
CO/C(O)=C1\C(C)=NC(C)=C(C(=O)n2ccnc2)[C@@H]1c1cccc([N+](=O)[O-])c1 | > 1000 nM | 181 nM | 31 nM | –
COC(=O)C1=C(C)NC(C)=C(C(=O)OC)C1c1ccccc1[N+](=O)[O-] [NIFEDIPINE] | > 1000 nM | 0.53 nM | 0.5 nM | > 1000 nM
COc1cc2nc(N3CCN(C(=O)c4ccco4)CC3)nc(N)c2cc1OC [PRAZOSIN] | – | > 1000 nM | > 1000 nM | 1.6 nM
